# According to US9187424B1, “Aryl dihydropyridinones and piperidinone MGAT2 inhibitors” (Bristol-Myers Squibb Company, priority 2011, dated 2015):
# Target: Human MGAT-2 (Homo sapiens (Human), UniProt Q3SYC2)
# Test: MGAT LCMS Assay (human MGAT-2);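 further: diolein product quantified by LC/MS with positive APCI, expressed as peak area ratio versus an internal standard, and this ratio used to derive IC50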
# Format: biochemical
# Details: human MGAT-2 membranes expressed in Sf9 cells; 2-oleoylglycerol and oleoyl-Coenzyme A; read-out: h-MGAT2 IC50 (nM) LCMS Assay
# Chain of Human MGAT-2 (Q3SYC2 whole entry): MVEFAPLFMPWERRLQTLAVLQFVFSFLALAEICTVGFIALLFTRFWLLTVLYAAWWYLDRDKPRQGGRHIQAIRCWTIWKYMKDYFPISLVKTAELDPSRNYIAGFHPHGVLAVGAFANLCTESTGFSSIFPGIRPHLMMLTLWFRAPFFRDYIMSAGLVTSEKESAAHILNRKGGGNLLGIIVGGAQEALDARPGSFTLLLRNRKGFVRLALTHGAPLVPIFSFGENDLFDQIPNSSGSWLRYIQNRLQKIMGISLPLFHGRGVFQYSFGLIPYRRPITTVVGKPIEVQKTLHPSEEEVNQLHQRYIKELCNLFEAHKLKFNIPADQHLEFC
row,Compound,IC50 [nM]
1,Cc1ccc(C2=C(NC(=O)n3ncnn3)C(=O)NC(c3ccc(OCCCC(F)(F)F)cc3)(C(F)(F)F)C2)cc1 (centres unmarked) [Example 192],433
2,CCNC(=O)NC1=C(c2ccc(C)cc2)CC(c2ccc(OCCCC(F)(F)F)cc2)(C(F)(F)F)NC1=O (centres unmarked) [Example 255],702
3,CCCCCCNC(=O)c1ccc(C2(C(F)(F)F)CC(c3ccc(C)cc3)=C(C(=O)Nc3ccc(OC)cc3)C(=O)N2)cc1 (centres unmarked) [Example 155],484
4,Cc1ccc(C2=C(C#N)C(=O)NC(c3ccc(OCCCC(F)(F)F)cc3)(C(F)(F)F)C2)cc1F (centres unmarked) [Example 219],172
5,CCCCCn1cc(C2(C(F)(F)F)CC(c3ccc(C)cc3)=C(C#N)C(=O)N2)cn1 (centres unmarked) [Example 230],1530
6,Cc1ccc(C2=C(C#N)C(=O)NC(c3ccc(OCCCC(F)(F)F)cc3)(C(F)(F)F)C2)cc1C (centres unmarked) [Example 217],118
7,COc1ccc(C(=O)NC2=C(c3ccc(C)cc3)CC(c3ccc(OCCCC(F)(F)F)cc3)(C(F)(F)F)NC2=O)nn1 (centres unmarked) [Example 232],6
8,Cc1ccc(C2=C(c3nn[nH]n3)C(=O)NC(c3ccc(OCCCCCC(F)(F)F)c(C)c3)(C(F)(F)F)C2)cc1 (centres unmarked) [Example 287],13
9,"Cc1ccc(C2=C(C(=O)Nc3ccc(C#N)cc3)C(=O)NC(c3ccc(OCCCC(F)(F)F)cc3)(C(F)(F)F)C2(F)F)cc1 (centres unmarked) [Example 103, N-(4-Cyanophenyl)-5,5-difluoro-2-oxo-4-p-tolyl-6-(4-(4,4,4-trifluorobutoxyl)phenyl)-6-(trifluoromethyl)-1,2,5,6-tetrahydropyridine-3-carboxamide]",645
10,Cc1ccc(NC(=O)C2=C(c3ccc(C)cc3)CC(c3ccc(OCCC(F)(F)F)cc3)(C(F)(F)F)NC2=O)cc1 (centres unmarked) [Example 129],222
11,Cc1ccc(C2=C(NC(=O)CS(C)(=O)=O)C(=O)NC(c3ccc(OCc4ccccc4)cc3)(C(F)(F)F)C2)cc1 (centres unmarked) [Example 279],2
12,COc1ccc(C2=C(NC(=O)c3cc(C)no3)C(=O)NC(c3ccc(OCCCC(F)(F)F)cc3)(C(F)(F)F)C2)cc1 (centres unmarked) [Example 176],3
13,O=C1NC(c2ccc(OCCCC(F)(F)F)cc2)(C(F)(F)F)CC(c2cccc(Cl)c2)=C1c1nn[nH]n1 (centres unmarked) [Example 99],795
14,Cc1ccc(C2=C(C#N)C(=O)NC(c3cnn(CCCCC(F)(F)F)c3)(C(F)(F)F)C2)cc1 (centres unmarked) [Example 227],63
15,O=C1NC(c2ccc(OCCCC(F)(F)F)cc2)(C(F)(F)F)CC(c2ccc(C3CC3)cc2)=C1c1nn[nH]n1 (centres unmarked) [Example 235],22
16,Cc1ccc(C2=C(NC(=O)c3cc(-c4ccccc4Cl)no3)C(=O)NC(c3ccc(OCCCC(F)(F)F)cc3)(C(F)(F)F)C2)cc1 (centres unmarked) [Example 185],121
17,Cc1ccc(C2=C(NC(=O)c3ccc(OC(F)(F)F)cc3)C(=O)NC(c3cnn(CCCCCC(F)(F)F)c3)(C(F)(F)F)C2)cc1 (centres unmarked) [Example 200],37
18,Cc1ccc(C2=C(NC(=O)CNS(C)(=O)=O)C(=O)NC(c3ccc(OCCCC(F)(F)F)cc3)(C(F)(F)F)C2)cc1 (centres unmarked) [Example 297],639
19,Cc1ccc(C2=C(NC(=O)c3cc(-c4cccc(F)c4)no3)C(=O)NC(c3ccc(OCCCC(F)(F)F)cc3)(C(F)(F)F)C2)cc1 (centres unmarked) [Example 190],155
20,COc1ccc(C2(C(F)(F)F)NC(=O)C(C#N)=C(c3ccc(C)cc3)C2(F)F)cc1 (centres unmarked) [Example 138],5800
21,COc1ccc(C2=C(c3nn[nH]n3)C(=O)NC(c3ccc(OCCCCCC(F)(F)F)cc3)(C(F)(F)F)C2)cc1 (centres unmarked) [Example 247],51

row,Compound,IC50 [nM]
1,Cc1ccc(C2=C(C#N)C(=O)NC(c3ccc(OCCCC(F)(F)F)cc3)(C(F)(F)F)C2)cc1Cl (centres unmarked) [Example 259],15
2,Cc1ccc(C2=C(c3nn[nH]n3)C(=O)NC(c3ccc(OCCCC(F)(F)F)cc3)(C(F)(F)F)C2)c(F)c1 (centres unmarked) [Example 286],4
3,O=C1NC(c2ccc(OCCCC(F)(F)F)cc2)(C(F)(F)F)CC(c2ccc3c(c2)CCCC3)=C1c1nn[nH]n1 (centres unmarked) [Example 210],2
4,COc1ccc(C(=O)NC2=C(c3ccc(C)cc3)C(F)(F)C(c3ccc(OCCCCC(F)(F)F)cc3)(C(F)(F)F)NC2=O)cc1 (centres unmarked) [Example 164],162
5,Cc1ccc(C2=C(C(=O)Nc3cc(C)no3)C(=O)NC(c3ccc(OCCCC(F)(F)F)cc3)(C(F)(F)F)C2)cc1 (centres unmarked) [Example 281],3
6,Cc1ccc(C2=C(NC(=O)c3cnco3)C(=O)NC(c3ccc(OCCCC(F)(F)F)cc3)(C(F)(F)F)C2)cc1 (centres unmarked) [Example 152],252
7,"COc1ccc(C2=C[C@@](c3ccc(OCCCC(F)(F)F)cc3)(C(F)(F)F)NC(=O)C2(F)C#N)cc1 (stereo in doubt) [Example 15-4, 3-Fluoro-4-(4-methoxyphenyl)-2-oxo-6-(4-(4,4,4-trifluorobutoxyl)phenyl)-6-(trifluoromethyl)-1,2,3,6-tetrahydropyridine-3-carbonitrile]",2050
8,CCCCCCCc1cnc(C2(C(F)(F)F)CC(c3ccc(C)cc3)=C(c3nn[nH]n3)C(=O)N2)s1 (centres unmarked) [Example 292],304
9,CCNC(=O)NC1=C(c2ccc(OCC(F)F)cc2)CC(c2ccc(OCCCC(F)(F)F)cc2)(C(F)(F)F)NC1=O (centres unmarked) [Example 254],170
10,O=C1NC(c2ccc(OCCCCCC(F)(F)F)cc2F)(C(F)(F)F)CC(c2ccc3ccccc3c2)=C1c1nn[nH]n1 (centres unmarked) [Example 276],2
11,CN(C)c1ccc(C2=C(c3nn[nH]n3)C(=O)NC(c3ccc(OCCCC(F)(F)F)cc3)(C(F)(F)F)C2)cc1 (centres unmarked) [Example 238],7
12,COc1ccc(Cn2cc(C3(C(F)(F)F)CC(c4ccc(C)cc4)=C(c4nn[nH]n4)C(=O)N3)cn2)cc1 (centres unmarked) [Example 182],2050
13,CCCOc1ccc(C2(C(F)(F)F)CC(c3ccc(C)cc3)=C(NC(=O)CS(C)(=O)=O)C(=O)N2)cc1 (centres unmarked) [Example 302],105
14,"CCn1nnc(C2=C(c3ccc(C)cc3)CC(c3ccc(OCCCC(F)(F)F)cc3)(C(F)(F)F)NC2=O)n1 (centres unmarked) [Example 9, 3-(2-Ethyl-2H-tetrazol-5-yl)-4-p-tolyl-6-(4-(4,4,4-trifluorobutoxyl)phenyl)-6-(trifluoromethyl)-5,6-dihydropyridin-2(1H)-one]",121
15,O=C1NC(c2ccc(OCCCC(F)(F)F)cc2)(C(F)(F)F)CC(c2ccc(Br)cc2)=C1c1nn[nH]n1 (centres unmarked) [Example 234],40
16,Cc1ccc(C2=C(NC(=O)c3cocn3)C(=O)NC(c3ccc(OCCCC(F)(F)F)cc3)(C(F)(F)F)C2)cc1 (centres unmarked) [Example 151],5120
17,O=C1NC(c2ccc(OCCCC(F)(F)F)cc2)(C(F)(F)F)CC(c2ccc(-n3cccn3)cc2)=C1c1nn[nH]n1 (centres unmarked) [Example 236],489
18,Cc1ccc(C2=C(NC(=O)c3ccc(F)cc3Cl)C(=O)NC(c3ccc(OCCCC(F)(F)F)cc3)(C(F)(F)F)C2)cc1 (centres unmarked) [Example 170],210
19,CCOP(=O)(CC(=O)NC1=C(c2ccc(C)cc2)CC(c2ccc(OCCCC(F)(F)F)cc2)(C(F)(F)F)NC1=O)OCC (centres unmarked) [Example 282],3
20,Cc1ccc(C2=C(c3nn[nH]n3)C(=O)NC(c3ccc(C#CCOCc4ccccc4)cc3)(C(F)(F)F)C2)cc1 (centres unmarked) [Example 290],56
21,COc1ccc(NC(=O)C2=C(c3ccc(C)cc3)CC(C)(C(=O)NCC(C)C)NC2=O)cc1 (centres unmarked) [Example 188],1520

row,Compound,IC50 [nM]
1,O=C1NC(c2ccc(OCCCCCC(F)(F)F)cc2F)(C(F)(F)F)CC(c2ccc(CC(F)(F)F)cc2)=C1c1nn[nH]n1 (centres unmarked) [Example 284],4
2,CCCCCNC(=O)c1ccc(C2(C)CC(c3ccc(C)cc3)=C(C(=O)Nc3ccc(OC)cc3)C(=O)N2)cc1 (centres unmarked) [Example 161],1260
3,N#CC1=C(c2ccc(OC(F)(F)F)c(F)c2)CC(c2ccc(OCCCC(F)(F)F)cc2)(C(F)(F)F)NC1=O (centres unmarked) [Example 261],1220
4,COc1cc(C2=C(C#N)C(=O)NC(c3ccc(OCCCC(F)(F)F)cc3)(C(F)(F)F)C2)ccc1C (centres unmarked) [Example 262],96
5,Cc1ccc(C2=C(NC(=O)c3cnccn3)C(=O)NC(c3ccc(OCCCC(F)(F)F)cc3)(C(F)(F)F)C2)cc1 (centres unmarked) [Example 153],247
6,Cc1ccc(C2=C(C#N)C(=O)NC(c3ccc(OCCCCCC(F)(F)F)cc3)(C(F)(F)F)C2)cc1 (centres unmarked) [Example 184],76
7,COc1ccc(C2=C(c3nn[nH]n3)C(=O)NC(c3ccc(OCC(F)(F)F)cc3)(C(F)(F)F)C2)cc1 (centres unmarked) [Example 240],7
8,O=C(Nc1cccnc1)C1=C(c2ccc(OC(F)F)cc2)CC(c2ccc(OCCCC(F)(F)F)cc2)(C(F)(F)F)NC1=O (centres unmarked) [Example 280],2
9,Cc1ccc(C2=C(c3nn[nH]n3)C(=O)NC(c3ccc(OCCCCC(F)(F)F)cc3F)(C(F)(F)F)C2)cc1 (centres unmarked) [Example 278],2
10,COc1ccc(C(=O)NC2=C(c3ccc(C)cc3)CC(c3ccc(OCCCC(F)(F)F)cc3)NC2=O)cc1 (centres unmarked) [Example 214],12
11,Cc1ccc(C2=C(c3nn[nH]n3)C(=O)NC(c3ccc(C#CCC4CCCCC4)cc3)(C(F)(F)F)C2)cc1 (centres unmarked) [Example 289],19
12,CCOc1ccc(C2=C(C#N)C(=O)NC(c3ccc(OCCCC(F)(F)F)cc3)(C(F)(F)F)C2)cc1Cl (centres unmarked) [Example 226],206
13,N#CC1=C(c2ccc(Cl)c(Cl)c2)CC(c2ccc(OCCCC(F)(F)F)cc2)(C(F)(F)F)NC1=O (centres unmarked) [Example 222],733
14,COCc1ccc(C2=C(c3nn[nH]n3)C(=O)NC(c3ccc(OCCCC(F)(F)F)cc3)(C(F)(F)F)C2)cc1 (centres unmarked) [Example 202],89
15,Cc1ccc(C2=C(c3nn[nH]n3)C(=O)NC(c3cccc(OCCCC(F)(F)F)c3)(C(F)(F)F)C2)cc1 (centres unmarked) [Example 267],796
16,O=C1NC(c2ccc(OCCCC(F)(F)F)cc2)(C(F)(F)F)CC(c2ccc(CC(F)(F)F)cc2)=C1c1nn[nH]n1 (centres unmarked) [Example 271],12
17,O=C1NC(c2ccc(OCCC(F)(F)F)cc2)(C(F)(F)F)CC(c2ccc(OC(F)(F)F)cc2)=C1c1nn[nH]n1 (centres unmarked) [Example 242],44
18,CCCCCCCC#CC1(C(F)(F)F)CC(c2ccc(C)cc2)=C(NC(=O)c2nnn[nH]2)C(=O)N1 (centres unmarked) [Example 311],3
19,CCCCCCC#CC1(C(F)(F)F)CC(c2ccc(C)cc2)=C(NC(=O)CNS(C)(=O)=O)C(=O)N1 (centres unmarked) [Example 298],2
20,O=C1NC(c2ccc(OCCCC(F)(F)F)cc2)(C(F)(F)F)CC(c2ccc3c(c2)OCO3)=C1c1nn[nH]n1 (centres unmarked) [Example 211],97
